According to patent publication US12077503B2, “Substituted cyclic amides and their use as herbicides” (FMC CORPORATION, priority 2015, dated 2024):

Columns and labels:
Format in all cases: in vivo
[1] = system: ragweed (common ragweed, Ambrosia elatior); assay: Test A preemergence; conditions: Ambrosia artemisiifolia, pre-emergence, 240 h, 0 to 100 scale where 0 is no effect and 100 is complete control, read-out: Ragweed plant response rating
How it was run: (§1)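 Ratings of 0 (no effect) to 100 (complete control) come from visual comparison with untreated controls roughly 10 d after treatment. Test chemicals, formulated in a non-phytotoxic solvent mixture with surfactant, were applied either as a preemergence directed soil spray on seeded soil or postemergence to one- to two-leaf plants 2 to 10 cm tall.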

[2] = system: pigweed (Amaranthus retroflexus); assay: Test A preemergence; conditions: Amaranthus retroflexus, pre-emergence, 240 h, 0 to 100 scale where 0 is no effect and 100 is complete control, read-out: Pigweed plant response rating
Kochia (Kochia scoparia) [3] = assay: Test A preemergence; conditions: Bassia scoparia, pre-emergence, 240 h, 0 to 100 scale where 0 is no effect and 100 is complete control, read-out: Kochia plant response rating
How it was run: as §1

[4] = system: barnyardgrass (Echinochloa crus-galli); assay: Test A preemergence; conditions: Echinochloa crus-galli, pre-emergence, 240 h, 0 to 100 scale where 0 is no effect and 100 is complete control, read-out: Barnyardgrass plant response rating
How it was run: as §1

[5] = system: giant foxtail (Setaria faberii); assay: Test A preemergence; conditions: Setaria faberi, pre-emergence, 240 h, 0 to 100 scale where 0 is no effect and 100 is complete control, read-out: Foxtail, Giant plant response rating
How it was run: as §1

[6] = system: ryegrass, Italian (Italian ryegrass, Lolium multiflorum); assay: Test A preemergence; conditions: Lolium multiflorum, pre-emergence, 240 h, 0 to 100 scale where 0 is no effect and 100 is complete control, read-out: Ryegrass, Italian plant response rating
How it was run: as §1

[7] = system: ducksalad (Heteranthera limosa); assay: Test B flooded paddy test; conditions: Heteranthera limosa, 250 g ai/ha, Flood; 0 to 100 scale where 0 is no effect and 100 is complete control; read-out: Ducksalad plant response rating
How it was run: (§2)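 Rating scale 0–100 (visual, vs untreated controls) after a 13–15 d greenhouse period; application to the flood layer, 3 cm above soil and maintained; plants at 2-leaf stage when treated.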

[8] = system: barnyardgrass (Echinochloa crus-galli); assay: Test B flooded paddy test; conditions: Echinochloa crus-galli, 250 g ai/ha, Flood; 0 to 100 scale where 0 is no effect and 100 is complete control; read-out: Barnyardgrass plant response rating
How it was run: as §2

[9] = system: sedge, umbrella (small-flower umbrella sedge, Cyperus difformis); assay: Test B flooded paddy test; conditions: Cyperus difformis, 250 g ai/ha, Flood; 0 to 100 scale where 0 is no effect and 100 is complete control; read-out: Sedge, Umbrella plant response rating
How it was run: as §2

rice (Oryra sativa) = assay: Test B flooded paddy test; conditions: Oryza sativa, 250 g ai/ha, Flood; 0 to 100 scale where 0 is no effect and 100 is complete control; read-out: Rice plant response rating
How it was run: as §2

[10] = system: ragweed (common ragweed, Ambrosia elatior); assay: Test A postemergence; conditions: Ambrosia artemisiifolia, post-emergence, 240 h, Postemergence, read-out: Ragweed plant response rating (0 to 100 scale)
How it was run: as §1

[11] = system: pigweed (Amaranthus retroflexus); assay: Test A postemergence; conditions: Amaranthus retroflexus, post-emergence, 240 h, Postemergence, read-out: Pigweed plant response rating (0 to 100 scale)
How it was run: as §1

Kochia (Kochia scoparia) [12] = assay: Test A postemergence; conditions: Bassia scoparia, post-emergence, 240 h, Postemergence, read-out: Kochia plant response rating (0 to 100 scale)
How it was run: as §1

corn (Zea mays) = assay: Test A postemergence; conditions: Zea mays, post-emergence, 240 h, Postemergence, read-out: Corn plant response rating (0 to 100 scale)
How it was run: as §1

[13] = system: barnyardgrass (Echinochloa crus-galli); assay: Test A postemergence; conditions: Echinochloa crus-galli, post-emergence, 240 h, Postemergence
How it was run: as §1

[14] = system: blackgrass (Alopecurus myosuroides); assay: Test A postemergence; conditions: Alopecurus myosuroides, post-emergence, 240 h, Postemergence, read-out: Blackgrass plant response rating (0 to 100 scale)
How it was run: as §1

[15] = system: giant foxtail (Setaria faberii); assay: Test A postemergence; conditions: Setaria faberi, post-emergence, 240 h, Postemergence, read-out: Foxtail, Giant plant response rating (0 to 100 scale)
How it was run: as §1

[16] = system: Galium (catchweed bedstraw, Galium aparine); assay: Test A postemergence; conditions: Galium, post-emergence, 240 h, Postemergence, read-out: Galium plant response rating (0 to 100 scale)
How it was run: as §1

[17] = system: ryegrass, Italian (Italian ryegrass, Lolium multiflorum); assay: Test A postemergence; conditions: Lolium multiflorum, post-emergence, 240 h, Postemergence, read-out: Ryegrass, Italian plant response rating (0 to 100 scale)
How it was run: as §1

[18] = system: wheat (Triticum aestivum); assay: Test A postemergence; conditions: Triticum aestivum, post-emergence, 240 h, Postemergence, read-out: Wheat plant response rating (0 to 100 scale)
How it was run: as §1

[19] = 125 g ai/ha, preemergence, visual injury rating, approximately 10 d
[20] = 125 g ai/ha, visual rating about 10 d after treatment
[21] = 31 g ai/ha, 0 is no effect, 100 is complete control

O=C1NC[C@H](c2csc3c2CCOC3)[C@H]1C(=O)Nc1cccc(F)c1F [Compound 1279]
20%: pest or weed control at 125 g/ha [5, 19] | pest or weed control at 125 g/ha [14, 20] | pest or weed control at 125 g/ha [15, 20]
40%: pest or weed control at 250 g/ha [8]
50%: pest or weed control at 125 g/ha ([13]; 125 g ai/ha, visual rating about 10 d after treatment, read-out: Barnyardgrass plant response rating (0 to 100 scale, 0 no effect, 100 complete control))
30%: pest or weed control at 250 g/ha (rice (Oryra sativa)) | pest or weed control at 125 g/ha [16, 20]
70%: pest or weed control at 125 g/ha [4, 19]
100%: pest or weed control at 250 g/ha [7]
0%: pest or weed control at 31 g/ha ([1]; 31 g ai/ha, Preemergence) | pest or weed control at 125 g/ha [1, 19] | pest or weed control at 31 g/ha ([2]; 31 g ai/ha, Preemergence) | pest or weed control at 125 g/ha [2, 19] | pest or weed control at 31 g/ha (Kochia (Kochia scoparia) [3]; 31 g ai/ha, Preemergence) | pest or weed control at 125 g/ha (Kochia (Kochia scoparia) [3]; [19]) | pest or weed control at 31 g/ha ([4]; 31 g ai/ha, Preemergence) | pest or weed control at 31 g/ha ([5]; 31 g ai/ha, Preemergence) | pest or weed control at 31 g/ha ([6]; 31 g ai/ha, Preemergence) | pest or weed control at 125 g/ha [6, 19] | pest or weed control at 250 g/ha [9] | pest or weed control at 125 g/ha [10, 20] | pest or weed control at 31 g/ha [10, 21] | pest or weed control at 125 g/ha [11, 20] | pest or weed control at 31 g/ha [11, 21] | pest or weed control at 125 g/ha (Kochia (Kochia scoparia) [12]; [20]) | pest or weed control at 31 g/ha (Kochia (Kochia scoparia) [12]; [21]) | plant injury at 125 g/ha (corn (Zea mays); [20]) | plant injury at 31 g/ha (corn (Zea mays); [21]) | pest or weed control at 31 g/ha ([13]; 31 g ai/ha, 0 is no effect, 100 is complete control, read-out: Barnyardgrass plant response rating (0 to 100 scale)) | pest or weed control at 31 g/ha [14, 21] | pest or weed control at 31 g/ha [15, 21] | pest or weed control at 31 g/ha [16, 21] | pest or weed control at 125 g/ha [17, 20] | pest or weed control at 31 g/ha [17, 21] | plant injury at 125 g/ha [18, 20] | plant injury at 31 g/ha [18, 21]
